{"source": "patent US8076281B2", "about": "“Use of a ghrelin agonist to improve the catabolic effects of glucocorticoid treatment” (IPSEN Pharma, S.A.S., priority 2006, dated 2011)", "key": {"[1]": {"assay": "Effects of pharmacological treatments on growth parameters in young rats", "assay_type": "in vivo, Sprague-Dawley rats", "details": "FIG. 3; for somatic growth: young male rats, compared to SAL-treated rats", "description": "Thirty-two prepubertal male Sprague-Dawley rats approximately 21 days old and weighing between 45 and 55 grams, were obtained from Harlan, Italy (S. Pietro al Natisone, ITALY). During the study, the animals were maintained in accordance with the guidelines of the Italian Ministry of Health for the care and use of laboratory animals (Decreto legge 116/92). The animals were randomly divided into two treatment groups and kept in a controlled environment at a constant temperature of 21-23° C. with 12:12 light/dark exposure continuous period wherein the light exposure began at approximately 8:00 am and ended at approximately 8:00 pm. The animals were provided with water and food ad libitum consisting of an approximate 3200 calories/kg daily diet of standard pellet chow provided by Piccioni, Gessate-Milano, Italy (containing at least 19% protein, 3% fat and 56% carbohydrate).\nBeginning on the 23rd day (i.e., the animals were 23 days old), 16 of the study animals were treated intraperitoneally (Ip) daily with 40 μg/kg of either saline or dexamethasone sodium phosphate (sold under the trademark Decadron® by Merck Pharmaceuticals, West Point, Pa.). […] At irregular intervals, the cumulative food intake for a 24-hour period of time was measured. Beginning on the 46th day (i.e., the animals were 46 days old), the length of the test and control animals from nose to anus was measured (hereinafter referred to as “the nose-anal length”). […]\nUnless otherwise stated, the results reported in FIGS. 3-6 are expressed as the mean±SEM of eight replicate test subjects. Data was analyzed for statistical significance by one-way ANOVA which determines the variation (variance) within the groups and how that variation translates into variation (i.e. differences) between the groups, taking into account how many subjects there are in each group. […]"}, "[2]": {"assay": "Effects of pharmacological treatments on plasma hormones and glucose concentrations", "assay_type": "in vivo, Sprague-Dawley rats", "details": "for plasma IGF-1 concentration (in words): compared with saline; for plasma corticosterone (in words) / plasma insulin (in words): compared with saline / vehicle", "description": "(§1) Beginning on the 23rd day (i.e., the animals were 23 days old), 16 of the study animals were treated intraperitoneally (Ip) daily with 40 μg/kg of either saline or dexamethasone sodium phosphate (sold under the trademark Decadron® by Merck Pharmaceuticals, West Point, Pa.). Beginning on the 30th day (i.e., the animals were 30 days old), the subgroup of 16 studied animals was further divided into groups of 8 and treated subcutaneously three times daily (at approximately 9:00 am, 1:00 pm and 5:00 pm) with either 80 nmoles/kg of the preferred ghrelin analog [Aib^2, Glu^3(NH-hexyl)]hGhrelin(1-28)-NH2 (SEQ ID NO:2) (IPSEN, Milford, Mass.) dissolved in a sterile saline solution with 0.25% bovine serum albumin or vehicle (the saline-bovine serum albumin solution alone). This regimen continued for 24 days during which time the studied animals were weighed two times per week. At irregular intervals, the cumulative food intake for a 24-hour period of time was measured. Beginning on the 46th day (i.e., the animals were 46 days old), the length of the test and control animals from nose to anus was measured (hereinafter referred to as “the nose-anal length”). On the 47th day (i.e., the animals were 47 days old), all food was denied to the test subjects commencing at 8:00 am. Small samples of blood were taken via percutaneous puncture of the tail to assess blood glucose levels during the treatment period.\nThe test animals received two subcutaneous administrations of [Aib^2, Glu^3(NH-hexyl)]hGhrelin(1-28)-NH2 (SEQ ID NO:2) at approximately 9:00 am and 1:00 pm. The studied animals were sacrificed by rapid decapitation at approximately 2:00 pm, trunk blood collected for hormone level determinations, and the epididymal fat pads removed and weighed.\nSamples of trunk blood were taken from the test subjects following decapitation. The blood samples were collected in tubes containing EDTA, separated by centrifugation, and stored at −20° C. Plasma insulin, IGF-1, and corticosterone levels were all measured using commercial RIA kits (Insulin and Corticosterone kits were both obtained from ICN-Biomedicals, Asse-Relegem, BELGIUM and the rIGF-1 test kit was obtained from Mediagnostic GMbH, Tubingen, GERMANY). Glucose concentration was determined using the Glucotrend® Soft Test System blood glucose meter (Roche Diagnostics, Barcelona, SPAIN).\nUnless otherwise stated, the results reported in FIGS. 3-6 are expressed as the mean±SEM of eight replicate test subjects. Data was analyzed for statistical significance by one-way ANOVA which determines the variation (variance) within the groups and how that variation translates into variation (i.e. differences) between the groups, taking into account how many subjects there are in each group. […] The linear correlation analysis was performed either by Pearson's parametric test or by Spearman's nonparametric test. A P value below 0.05 was considered significant."}, "[3]": {"assay": "24-hour food intake and food efficiency", "assay_type": "in vivo, Sprague-Dawley rats", "details": "for 24-h food intake: after 10 days of dexamethasone treatment, compared with saline-treated animals, FIG. 4A; for food efficiency: ratio body weight gain (g) / food intake (g), compared with saline treatment", "description": "as §1\nFood efficiency was calculated as the ratio between body weight gain (in grams) and food intake (in grams) measured over the same time interval."}, "[4]": {"details": "in the rat; cited from earlier work"}}, "data": [{"molecule": "C[C@@H]1C[C@H]2[C@@H]3CCC4=CC(=O)C=C[C@]4(C)[C@@]3(F)[C@@H](O)C[C@]2(C)[C@@]1(O)C(=O)CO", "note": "[Dexamethasone, 9-fluoro-11β, 17, 21-trihydroxy-16a-methylpregna-1,4-diene-3,20-dione, reference compound]", "values": [{"measurement": "somatic growth", "setting": "[1]", "result": "significantly decreased"}, {"measurement": "plasma IGF-1 concentration (in words)", "setting": "[2]", "result": "significantly reduced"}, {"measurement": "plasma corticosterone (in words)", "setting": "[2]", "result": "suppressed almost completely"}, {"measurement": "plasma insulin (in words)", "setting": "[2]", "result": "tended to increase plasma insulin concentration, but the effect did not reach statistical significance"}, {"measurement": "24-h food intake", "setting": "[3]", "result": "significant reduction"}, {"measurement": "food efficiency", "setting": "[3]; FIG. 4B", "result": "significantly reduced food efficiency"}, {"measurement": "cumulative 24-hour food intake", "setting": "[3]; up to 10 days from the beginning of the treatment", "result": "did not significantly affect"}]}, {"molecule": "GHRP-6", "values": [{"measurement": "glucocorticoid-mediated GH-inhibition", "setting": "[4]", "result": "completely counteract"}]}, {"molecule": "[Aib^2, Glu^3(NH-hexyl)]hGhrelin(1-28)-NH2 (GXEFLSPEHQRVQQRKESKKPPAKLQPR; Aib2, Glu3 NH-hexyl, C-terminal amide; Ghrelin analog)", "values": [{"measurement": "growth suppression induced by DEX", "setting": "[1]; concomitant treatment in DEX-treated rats", "result": "reversed"}, {"measurement": "somatic growth", "setting": "[1]", "result": "significantly increased"}, {"measurement": "Glucose", "setting": "[2]; at sacrifice (day 47), mean ± SEM of eight animals", "result": "122 ± 3", "unit": "mg/dL"}, {"measurement": "plasma IGF-1 concentration (in words)", "setting": "[2]", "result": "higher IGF-1 levels"}, {"measurement": "plasma corticosterone (in words)", "setting": "[2]", "result": "clear-cut increase"}, {"measurement": "plasma insulin (in words)", "setting": "[2]", "result": "unchanged"}, {"measurement": "suppression of the HPA axis (corticosterone) in dexamethasone-treated animals", "setting": "[2]; in dexamethasone-treated animals", "result": "not able to overcome"}, {"measurement": "IGF-1 suppression in dexamethasone-treated subjects", "setting": "[2]; in dexamethasone-treated subjects", "result": "partially reversed"}, {"measurement": "24-h food intake", "setting": "[3]", "result": "increased daily food intake"}, {"measurement": "decrease of food efficiency induced by dexamethasone", "setting": "[3]; in dexamethasone-treated rats, FIG. 4B", "result": "able to reverse"}, {"measurement": "food efficiency", "setting": "[3]; FIG. 4B", "result": "increased food efficiency"}]}]}
